What was measured:
[1] = target: Cyclin-dependent kinase 2 (Homo sapiens, UniProt P24941); experiment: Inhibitory concentration against cyclin-dependent kinase 2
[2] = target: Cyclin-dependent kinase 4 (Homo sapiens, UniProt P11802); experiment: Inhibitory concentration against cyclin-dependent kinase 4
Chain of Cyclin-dependent kinase 4 (P11802 whole entry): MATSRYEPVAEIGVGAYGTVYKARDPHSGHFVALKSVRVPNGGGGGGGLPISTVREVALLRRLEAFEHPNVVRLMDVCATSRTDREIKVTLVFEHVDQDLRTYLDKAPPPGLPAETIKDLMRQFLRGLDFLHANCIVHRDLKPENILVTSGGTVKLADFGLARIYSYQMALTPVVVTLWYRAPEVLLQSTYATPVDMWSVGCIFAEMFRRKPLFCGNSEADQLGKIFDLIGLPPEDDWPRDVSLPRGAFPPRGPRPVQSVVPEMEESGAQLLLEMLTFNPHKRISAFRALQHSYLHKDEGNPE

**Q.** Which IC50 [1] does the source give for CN(C)CC(O)COc1ccc(Nc2ncc(Cl)c(Nc3ccccc3)n2)cc1 (stereo not drawn) here?
**A.** Its IC50 is 500 nM.

**Q.** And the IC50 [2]?
**A.** The IC50 was 100 nM.

**Q.** For COc1ccccc1Nc1ccnc(Nc2ccc(OCC(O)CN(C)C)cc2)n1 (stereo not drawn), which IC50 [1] is on record?
**A.** Its IC50 is 15000 nM.

**Q.** And the IC50 [2]?
**A.** The IC50 was 19000 nM.

**Q.** For Cc1ccc(Cl)c(Nc2cc(Nc3ccc(OCC(O)CN(C)C)cc3)ncn2)c1 (stereo not drawn), which IC50 [1] is on record?
**A.** Its IC50 is 22000 nM.

**Q.** And the IC50 [2]?
**A.** Its IC50 is 2000 nM.

**Q.** For CN(C)CC(O)COc1ccc(Nc2nccc(Nc3ccccc3F)n2)cc1 (stereo not drawn), which IC50 [1] is on record?
**A.** The IC50 was 7000 nM.

**Q.** What about the IC50 [2] of the same compound?
**A.** The IC50 was 1000 nM.

**Q.** For COc1ccc(Nc2ccnc(Nc3ccc(OCC(O)CN(C)C)cc3)n2)cc1 (stereo not drawn), which IC50 [1] is on record?
**A.** The IC50 was 36000 nM.

**Q.** What about the IC50 [2] of the same compound?
**A.** Its IC50 is 2000 nM.

**Q.** With CN(C)CC(O)COc1ccc(Nc2nccc(N(CCC#N)c3cc(Cl)ccc3Cl)n2)cc1 (stereo not drawn) as the compound, how does the IC50 [1] read?
**A.** The IC50 was 3000 nM.

**Q.** What about the IC50 [2] of the same compound?
**A.** The IC50 was 300 nM.

**Q.** Which results are given for CN(C)CC(O)COc1ccc(Nc2nccc(Nc3cc(Cl)ccc3Cl)n2)cc1 (stereo not drawn)?
**A.** IC50 [1]: 1000 nM; IC50 [2]: 800 nM

**Q.** For Cc1ccc(F)c(Nc2ccnc(Nc3ccc(OCC(O)CN(C)C)cc3)n2)c1 (stereo not drawn), which IC50 [1] is on record?
**A.** Its IC50 is 2000 nM.

**Q.** What about the IC50 [2] of the same compound?
**A.** Its IC50 is 700 nM.

**Q.** How did the IC50 [1] turn out when Cc1cnc(Nc2ccc(OCC(O)CN(C)C)cc2)nc1Nc1ccccc1 (stereo not drawn) was run?
**A.** The IC50 was 8000 nM.

**Q.** What about the IC50 [2] of the same compound?
**A.** Its IC50 is 800 nM.

**Q.** How did the IC50 [1] turn out when CN(C)CC(O)COc1ccc(Nc2nccc(Nc3ccccc3Cl)n2)cc1 (stereo not drawn) was run?
**A.** The IC50 was 6000 nM.

**Q.** And the IC50 [2]?
**A.** Its IC50 is 1000 nM.

**Q.** How did the IC50 [1] turn out when COc1ccc(Nc2cc(Nc3ccc(OCC(O)CN(C)C)cc3)ncn2)cc1 (stereo not drawn) was run?
**A.** The IC50 was greater than 100000 nM.

**Q.** And the IC50 [2]?
**A.** Its IC50 is 57000 nM.

**Q.** How did the IC50 [1] turn out when CN(C)CC(O)COc1ccc(Nc2nccc(Nc3cc(C(F)(F)F)ccc3F)n2)cc1 (stereo not drawn) was run?
**A.** Its IC50 is 1000 nM.

**Q.** And the IC50 [2]?
**A.** Its IC50 is 600 nM.

**Q.** For CN(C)CC(O)COc1ccc(Nc2nccc(N(CCCC(F)(F)F)c3cc(Cl)ccc3Cl)n2)cc1 (stereo not drawn), which IC50 [1] is on record?
**A.** Its IC50 is 12000 nM.

**Q.** What about the IC50 [2] of the same compound?
**A.** Its IC50 is 200 nM.

**Q.** What does the source list for CN(C)CC(O)COc1ccc(Nc2nccc(N(Cc3ccccc3)c3cc(Cl)ccc3Cl)n2)cc1 (stereo not drawn)?
**A.** IC50 [1]: > 10000 nM; IC50 [2]: 1000 nM

**Q.** For CN(C)CC(O)COc1ccc(Nc2nccc(Nc3ccccc3)n2)cc1 (stereo not drawn), which IC50 [1] is on record?
**A.** Its IC50 is 34000 nM.

**Q.** What about the IC50 [2] of the same compound?
**A.** The IC50 was 2000 nM.

**Q.** Which results are given for Cc1ccc(Nc2cc(Nc3ccc(OCC(O)CN(C)C)cc3)ncn2)cc1 (stereo not drawn)?
**A.** IC50 [1]: > 100000 nM; IC50 [2]: 25000 nM

**Q.** Which results are given for CN(C)CC(O)COc1ccc(Nc2nccc(Nc3ccccc3Br)n2)cc1 (stereo not drawn)?
**A.** IC50 [1]: 7000 nM; IC50 [2]: 1000 nM

**Q.** Which IC50 [1] does the source give for CN(C)CC(O)COc1ccc(Nc2nccc(Nc3cccc(Cl)c3)n2)cc1 (stereo not drawn) here?
**A.** Its IC50 is 5000 nM.

**Q.** What about the IC50 [2] of the same compound?
**A.** Its IC50 is 2000 nM.

**Q.** Which IC50 [1] does the source give for CN(C)CC(O)COc1ccc(Nc2cc(Nc3ccc(Cl)cc3)ncn2)cc1 (stereo not drawn) here?
**A.** Its IC50 is greater than 100000 nM.

**Q.** And the IC50 [2]?
**A.** Its IC50 is 41000 nM.

**Q.** With C#CCN(c1ccnc(Nc2ccc(OCC(O)CN(C)C)cc2)n1)c1cc(Cl)ccc1Cl (stereo not drawn) as the compound, how does the IC50 [1] read?
**A.** The IC50 was 2000 nM.

**Q.** What about the IC50 [2] of the same compound?
**A.** Its IC50 is 200 nM.

**Q.** Which IC50 [1] does the source give for Cc1ccc(F)c(Nc2cc(Nc3ccc(OCC(O)CN(C)C)cc3)ncn2)c1 (stereo not drawn) here?
**A.** The IC50 was 81000 nM.

**Q.** And the IC50 [2]?
**A.** Its IC50 is 4000 nM.

**Q.** What does the source list for CN(C)CC(O)COc1ccc(Nc2ncc(Br)c(Nc3ccccc3)n2)cc1 (stereo not drawn)?
**A.** IC50 [1]: 300 nM; IC50 [2]: 100 nM

**Q.** How did the IC50 [1] turn out when CN(C)CC(O)COc1ccc(Nc2ncc(Br)c(N(CCCC(F)(F)F)c3ccccc3)n2)cc1 (stereo not drawn) was run?
**A.** Its IC50 is 200 nM.

**Q.** And the IC50 [2]?
**A.** Its IC50 is 10 nM.

**Q.** CN(C)CC(O)COc1ccc(Nc2nccc(N(CC#N)c3cc(Cl)ccc3Cl)n2)cc1 (stereo not drawn) was tested. Which IC50 [1] did it give?
**A.** The IC50 was 700 nM.

**Q.** What about the IC50 [2] of the same compound?
**A.** Its IC50 is 100 nM.

**Q.** With CN(C)CC(O)COc1ccc(Nc2nccc(Nc3ccc(Cl)cc3)n2)cc1 (stereo not drawn) as the compound, how does the IC50 [1] read?
**A.** The IC50 was 18000 nM.

**Q.** What about the IC50 [2] of the same compound?
**A.** The IC50 was 1000 nM.

**Q.** How did the IC50 [1] turn out when CN(C)CC(O)COc1ccc(Nc2ncc(F)c(Nc3ccccc3)n2)cc1 (stereo not drawn) was run?
**A.** The IC50 was greater than 10000 nM.

**Q.** What about the IC50 [2] of the same compound?
**A.** Its IC50 is 300 nM.

**Q.** Cc1ccc(Nc2ccnc(Nc3ccc(OCC(O)CN(C)C)cc3)n2)cc1 (stereo not drawn) was tested. Which IC50 [1] did it give?
**A.** Its IC50 is 26000 nM.

**Q.** What about the IC50 [2] of the same compound?
**A.** The IC50 was 2000 nM.

**Q.** CN(C)CC(O)COc1ccc(Nc2nccc(Nc3ccccc3C#N)n2)cc1 (stereo not drawn) was tested. Which IC50 [1] did it give?
**A.** Its IC50 is 4000 nM.

**Q.** And the IC50 [2]?
**A.** Its IC50 is 2000 nM.

**Q.** What does the source list for Cc1ccc(Cl)c(Nc2ccnc(Nc3ccc(OCC(O)CN(C)C)cc3)n2)c1 (stereo not drawn)?
**A.** IC50 [1]: 5000 nM; IC50 [2]: 2000 nM

From ChEMBL document CHEMBL1136192, “Cyclin-dependent kinase 4 inhibitors as a treatment for cancer. Part 2: identification and optimisation of substituted 2,4-bis anilino pyrimidines” (Bioorg Med Chem Lett, 2003)
